Experimental data taken from patent US5942527A, “Hydrazones, hydrazines, semicarbazones and thiosemicarbazones derived from pyridyl ketones as anticonvulsant drugs and excitatory amino acid antagonists” (K & K Biosciences, Inc., priority 1997, dated 1999).

Columns and labels:
[1] = tested on: subcutaneous pentylenetetrazole (Metrazole) seizure; experiment: Subcutaneous pentylenetetrazole (Metrazole) seizure threshold test (scMet), mouse, i.p.; format: in vivo, mouse (male Carworth Farms #1); details: ip, mice, Table 5
Excerpt: (§1) The hydrazones, hydrazines and semicarbazones derived from pyridyl ketones and the resulting orally effective anticonvulsant compositions of this invention are useful in the treatment of convulsive disorders. […] A series of hydrazones, hydrazines and semicarbazones derived from pyridyl ketones of this invention has been evaluated for anticonvulsant activity by the intraperitoneal (i.p.) and by the oral (p.o.) route using two standard seizure models in the mouse and in the rat, the maximal electroshock seizure (MES) test and the subcutaneous pentylenetetrazole (Metrazole) seizure threshold (scMet) test. […] In addition, the compounds are evaluated in a new model, the threshold tonic extension (TTE) model. […] Thus active compounds that may be missed in the MES and scMet tests in the mouse, i.p., can be detected in the TTE test.
In mice. i.p.: All compounds are emulsified in 0.5% methylcellulose. The solvent has been tested for anticonvulsant and toxic effects and found to introduce no significant bias into the testing of anticonvulsant activity. The compounds are administered intraperitoneally in a volume of 0.01 ml/gm to male Carworth Farms #1 mice weighing about 20 gm. All compounds are tested at least at three dose levels (30, 100 and 300 mg/kg) at 30 minutes and 4 hours after their administration.
(§2) The Subcutaneous Pentylenetetrazol (Metrazole) Seizure Treshold Test (scMET): A 0.5 % solution of 85 mg/kg of pentylenetetrazole is administered subcutaneously in the posterior midline 30 minutes or 4 hours after drug administration to the animal. Failure to observe even a threshold seizure (a single episode of clonic spasms of at least 5 sec duration) is defined as protection and the results are expressed as number of animals protected/number of animals tested.
(§3) Anticonvulsant Quantification in Mice, i.p.: The ED50 values are determined in the MES, scMet and rotorod ataxia test.

[2] = tested on: maximal electroshock seizures; experiment: Maximal electroshock seizure (MES) test, rat, p.o.; format: in vivo, rat (Sprague-Dawley); details: for ED50 / responders at 30 mg/kg: po; for responders at 30 mg/kg: several time points over a 4 hour period, read-out: Percent Protection at 30 mg/kg, in the MES test; for P.I., TD50/ED50, MES: Table 6
Excerpt: The hydrazones, hydrazines and semicarbazones derived from pyridyl ketones and the resulting orally effective anticonvulsant compositions of this invention are useful in the treatment of convulsive disorders. […] A series of hydrazones, hydrazines and semicarbazones derived from pyridyl ketones of this invention has been evaluated for anticonvulsant activity by the intraperitoneal (i.p.) and by the oral (p.o.) route using two standard seizure models in the mouse and in the rat, the maximal electroshock seizure (MES) test and the subcutaneous pentylenetetrazole (Metrazole) seizure threshold (scMet) test. […] In addition, the compounds are evaluated in a new model, the threshold tonic extension (TTE) model. […] Thus active compounds that may be missed in the MES and […] the mouse, i.p., can be detected in the TTE test. The Maximal Electroshock Seizure Test (MES): Maximal electroshock seizures are elicited with a 60 Hz alternating current of 50 mA intensity in mice and about 150 mA intensity in rats (5-7 times that necessary to elicit minimal electroshock seizures), delivered for 0.2 sec via corneal electrodes. A drop of 0.9% saline is instilled in the eye prior to application of the electrodes in order to […]. Abolition of the hind limb tonic extension component of the seizure is defined as protection and results are expressed as number of animals protected/number of animals tested. […] This species will be the subject of the complete anticonvulsant quantification test evaluation as described above, but after oral (gavage) administration of the candidate compound.

in vivo [3] = experiment: in vivo; parameters: species or system rat (Sprague-Dawley); details: rat, po
Method: (§4) Neurotoxicity is determined by the rotorod ataxia test in mice and by the positional sense test and gait and stance test in the rat.
(§5) This species will be the subject of the complete anticonvulsant quantification test evaluation as described above, but after oral (gavage) administration of the candidate compound.
Neurological deficit in rats is examined by the positional sense test and gait and stance test. […] Inability to do so rapidly indicates a neurologic deficit. In the gait and stance test, a neurologic deficit is indicated by a circular or a zigzag gait, ataxia, abnormal spread of the legs, abnormal body posture, tremor, hyperactivity, lack of exploratory behavior, somnolence, stupor, or catalepsy.

[4] = tested on: maximal electroshock seizures; experiment: Maximal electroshock seizure (MES) test, mouse, i.p.; format: in vivo, mouse (male Carworth Farms #1); details: for ED50: Mus musculus, ip; for ED50 / P.I., TD50/ED50, MES: mice, Table 5; for ASP Group Classification, MES Test: mouse, 30, 100 and 300 mg/kg
Excerpt: The hydrazones, hydrazines and semicarbazones derived from pyridyl ketones and the resulting orally effective anticonvulsant compositions of this invention are useful in the treatment of convulsive disorders. […] A series of hydrazones, hydrazines and semicarbazones derived from pyridyl ketones of this invention has been evaluated for anticonvulsant activity by the intraperitoneal (i.p.) and by the oral (p.o.) route using two standard seizure models in the mouse and in the rat, the maximal electroshock seizure (MES) test and the subcutaneous pentylenetetrazole (Metrazole) seizure threshold (scMet) test. […] In addition, the compounds are evaluated in a new model, the threshold tonic extension (TTE) model. […] Thus active compounds that may be missed in the MES and […] the mouse, i.p., can be detected in the TTE test. Based on the screening results, the compounds are placed in one of three categories. […] Class II compounds show anticonvulsant activity at doses greater than 100 mg/kg or show activity at 100 mg/kg which is not reinforced by similar activity at 300 mg/kg. […] The Class I compounds are those which are most promising as anticonvulsants. […] In mice. i.p.: All compounds are emulsified in 0.5% methylcellulose. The solvent has been tested for anticonvulsant and toxic effects and found to introduce no significant bias into the testing of anticonvulsant activity. The compounds are administered intraperitoneally in a volume of 0.01 ml/gm to male Carworth Farms #1 mice weighing about 20 gm. All compounds are tested at least at three dose levels (30, 100 and 300 mg/kg) at 30 minutes and 4 hours after their administration. The Maximal Electroshock Seizure Test (MES): Maximal electroshock seizures are elicited with a 60 Hz alternating current of 50 mA intensity in mice and about 150 mA intensity in rats (5-7 times that necessary to elicit minimal electroshock seizures), delivered for 0.2 sec via corneal electrodes. A drop of 0.9% saline is instilled in the eye prior to application of the electrodes in order to […]. Abolition of the hind limb tonic extension component of the seizure is defined as protection and results are expressed as number of animals protected/number of animals tested. Anticonvulsant Quantification in Mice, i.p.: The ED50 values are determined in the MES, scMet and rotorod ataxia test.

in vivo [5] = experiment: in vivo; parameters: species or system mouse (male Carworth Farms #1); details: mouse, ip
Method: as §4
Neurotoxicity is evaluated in mice by the rotorod ataxia test. The animal is placed on a wooden rod of 1 and 1/8" diameter rotating at 6 rpm. Normal mice can remain on a rod rotating at this speed indefinitely.
as §3

[6] = tested on: subcutaneous pentylenetetrazole (Metrazole) seizure; experiment: Subcutaneous pentylenetetrazole (Metrazole) seizure threshold test (scMet), rat, p.o.; format: in vivo, rat (Sprague-Dawley); details: po, rats, Table 6
Excerpt: as §1, §2, §5

TTE seizure = experiment: Threshold tonic extension (TTE) test, mouse, i.p.; format: in vivo
Excerpt: as §1
The Threshold Tonic Extension (TTE) Test: The TTE test (Piredda et al., 1985) is a clinically nonselective, electroconvulsive seizure model that identifies compounds that raise seizure threshold as well as those that prevent seizure spread. […] The test is similar to the MES screen but uses a lower level of electrical current. The lower current makes the TTE test more sensitive but less discriminate than the MES screen. This ability makes the model attractive because it allows us to identify compounds that may be missed by our standard identification screen.
Twenty mice are pretreated intraperitoneally with 100 mg/kg of the test substance. At several time intervals (1/4, 1/2, 1, 2, and 4 hours) post treatment with the test drug, four mice at each time point are challenged with 12.5 mA of electrical current for 0.2 seconds via corneal electrodes. This produces a TTE seizure in the animals (Woodbury and Davenport, 1952).
For each time interval results are expressed as a ratio of the number of animals protected over the number tested. […] The positives may represent compounds acting by novel mechanisms.

[7] = Rattus norvegicus, rats, Table 6, read-out: ED50, MES
[8] = rat, Table 7, read-out: Anticonvulsant Efficacy (ED50, mg/kg) in the MES Test

SMILES	ED50 [1]	ED50 [2, 7]	responders at 30 mg/kg ([2]; rat, 30 mg/kg)	P.I., TD50/ED50, MES ([2]; rats)	TD50 (in vivo [3])	ED50 [4]	P.I., TD50/ED50, MES [4]	ASP Group Classification, MES Test [4]	TD50 (in vivo [5])	ED50 [6]	ED50 [2, 8]	protection at 30 mg/kg, MES Test ([2]; rat, 30 mg/kg, Table 7)	ED50 (TTE seizure; Mus musculus, ip, mice, Table 5)	ASP Group Classification, TTE Test (TTE seizure; mouse, 100 mg/kg)	TTE Test (Percent Protection) (TTE seizure; mouse, 100 mg/kg)
CC(=NNc1cccc(Cl)c1)c1ccncc1 [Compound 3, Methyl 4-pyridyl ketone 3-chlorophenyl hydrazone]	> 500 mg/kg	36.6 mg/kg	50 to 100%	> 13.65	> 500 mg/kg	81.8 mg/kg	5.39	II (show anticonvulsant activity at doses greater than 100 mg/kg or show activity at 100 mg/kg which is not reinforced by similar activity at 300 mg/kg)	441 mg/kg	> 250 mg/kg	–	–	–	–	–
CC(=NNc1ccc(Cl)cc1)c1cccnc1 [Compound 5, Methyl 3-pyridyl ketone 4-chlorophenylhydrazone]	–	7.79 mg/kg	50 to 100%	> 64.12	> 500 mg/kg	–	–	I (They demonstrate anticonvulsant activity in either the MES test or the scMet test, or both at doses of 100 mg/kg or 30 mg/kg without signs of neurological deficit and thus have an estimated protective index of greater than 1)	–	> 250 mg/kg	7.8 mg/kg	–	–	–	–
CC(=NNc1ccc(Cl)c(Cl)c1)c1cccnc1 [Compound 4, Methyl 3-pyridyl ketone 3,4-dichlorophenylhydrazone]	> 500 mg/kg	–	25 to 100%	–	–	69.8 mg/kg	> 7.17	I (They demonstrate anticonvulsant activity in either the MES test or the scMet test, or both at doses of 100 mg/kg or 30 mg/kg without signs of neurological deficit and thus have an estimated protective index of greater than 1)	> 500 mg/kg	–	–	–	–	–	–
NC(=O)NN=C(c1ccccc1)c1ccncc1 [Compound 15, Phenyl 4-pyridyl ketone semicarbazone]	> 300 mg/kg	–	50 to 100%	–	–	57.5 mg/kg	2.79	I (They demonstrate anticonvulsant activity in either the MES test or the scMet test, or both at doses of 100 mg/kg or 30 mg/kg without signs of neurological deficit and thus have an estimated protective index of greater than 1)	160 mg/kg	–	–	50-100%	–	–	–
CC(=NNc1ccc(Cl)c(Cl)c1)c1ccncc1 [Compound 1, Methyl 4-pyridyl ketone 3,4-dichlorophenylhydrazone]	–	16.9 mg/kg	25 to 95%	> 29.64	> 500 mg/kg	–	–	III (Those failing to demonstrate anticonvulsant activity at doses up to 300 mg/kg are considered inactive)	–	> 250 mg/kg	16.9 mg/kg	–	71 mg/kg	I (They demonstrate anticonvulsant activity in either the MES test or the scMet test, or both at doses of 100 mg/kg or 30 mg/kg without signs of neurological deficit and thus have an estimated protective index of greater than 1)	62%
